Assay results published in the supplement of paper PMC11451515.

Test system: P12-Ichikawa
Assay: cell viability relative to DMSO control; higher = less cytotoxic
Conditions: 48 h
How it was run: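 NOMO1 or SEM cells were plated at 500 cells/well and P12-Ichikawa cells at 1000 cells/well in 1536-well plates (5 μl), after each leukemia line had been adapted for at least four passages in each medium. Pin dosing delivered library compounds in DMSO at 11 threefold concentrations, 47 μM to 0.79 nM. CellTiter-Glo One luminescence was read after 48 h at 37°C. Viability is reported as a per-plate percentage of DMSO wells, with cell-free wells as background.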

[1] = HPLM + 10% dialyzed FBS, 0.000781 µM
[2] = HPLM + 10% dialyzed FBS, 0.00234 µM
[3] = HPLM + 10% dialyzed FBS, 0.00702 µM
[4] = HPLM + 10% dialyzed FBS, 0.0211 µM
[5] = HPLM + 10% dialyzed FBS, 0.0632 µM
[6] = HPLM + 10% dialyzed FBS, 0.19 µM
[7] = HPLM + 10% dialyzed FBS, 0.569 µM
[8] = HPLM + 10% dialyzed FBS, 1.71 µM
[9] = HPLM + 10% dialyzed FBS, 5.12 µM
[10] = HPLM + 10% dialyzed FBS, 15.4 µM
[11] = HPLM + 10% dialyzed FBS, 46.1 µM
[12] = RPMI 5 mM glucose + 10% FBS, 0.000781 µM
[13] = RPMI 5 mM glucose + 10% FBS, 0.00234 µM
[14] = RPMI 5 mM glucose + 10% FBS, 0.00702 µM
[15] = RPMI 5 mM glucose + 10% FBS, 0.0211 µM
[16] = RPMI 5 mM glucose + 10% FBS, 0.0632 µM
[17] = RPMI 5 mM glucose + 10% FBS, 0.19 µM
[18] = RPMI 5 mM glucose + 10% FBS, 0.569 µM
[19] = RPMI 5 mM glucose + 10% FBS, 1.71 µM
[20] = RPMI 5 mM glucose + 10% FBS, 5.12 µM
[21] = RPMI 5 mM glucose + 10% FBS, 15.4 µM
[22] = RPMI 5 mM glucose + 10% FBS, 46.1 µM
[23] = RPMI 5 mM glucose + 10% dialyzed FBS, 0.000781 µM
[24] = RPMI 5 mM glucose + 10% dialyzed FBS, 0.00234 µM
[25] = RPMI 5 mM glucose + 10% dialyzed FBS, 0.00702 µM
[26] = RPMI 5 mM glucose + 10% dialyzed FBS, 0.0211 µM
[27] = RPMI 5 mM glucose + 10% dialyzed FBS, 0.0632 µM
[28] = RPMI 5 mM glucose + 10% dialyzed FBS, 0.19 µM
[29] = RPMI 5 mM glucose + 10% dialyzed FBS, 0.569 µM
[30] = RPMI 5 mM glucose + 10% dialyzed FBS, 1.71 µM
[31] = RPMI 5 mM glucose + 10% dialyzed FBS, 5.12 µM
[32] = RPMI 5 mM glucose + 10% dialyzed FBS, 15.4 µM
[33] = RPMI 5 mM glucose + 10% dialyzed FBS, 46.1 µM

Row | Structure (SMILES) | cell viability [1] | cell viability [2] | cell viability [3] | cell viability [4] | cell viability [5] | cell viability [6] | cell viability [7] | cell viability [8] | cell viability [9] | cell viability [10] | cell viability [11] | cell viability [12] | cell viability [13] | cell viability [14] | cell viability [15] | cell viability [16] | cell viability [17] | cell viability [18] | cell viability [19] | cell viability [20] | cell viability [21] | cell viability [22] | cell viability [23] | cell viability [24] | cell viability [25] | cell viability [26] | cell viability [27] | cell viability [28] | cell viability [29] | cell viability [30] | cell viability [31] | cell viability [32] | cell viability [33]
1 | C[C@H]1C[C@H]2[C@@H]3CCC4=CC(=O)C=C[C@]4(C)[C@H]3C(=O)C[C@]2(C)[C@@]1(O)C(=O)CO | 91.4% | 96.5% | 93.1% | 95.6% | 88% | 92.7% | 87.6% | 94.8% | 88.3% | 101% | 93% | 91.3% | 98.1% | 94% | 90.7% | 94.7% | 99.7% | 94.9% | 97.2% | 100% | 95.7% | 85.3% | 83.7% | 91.7% | 80.1% | 89.7% | 84% | 85.6% | 82.7% | 83.7% | 82.2% | 85.6% | 70.5%
2 | O=[S+]([O-])(/N=C/c1c(O)ccc2ccccc12)c1cccs1 | 109% | 113% | 116% | 120% | 120% | 120% | 117% | 122% | 124% | 103% | 84.6% | 119% | 123% | 130% | 115% | 120% | 120% | 133% | 123% | 132% | 123% | 125% | 117% | 121% | 126% | 125% | 124% | 124% | 120% | 122% | 121% | 109% | 103%
3 | CN(C)/[N+]([O-])=N/Oc1cc(ON[N+](=O)N2CCN(C(=O)c3cc(Cc4n[nH]c(=O)c5ccccc45)ccc3F)CC2)c([N+](=O)[O-])cc1[N+](=O)[O-] | 102% | 105% | 111% | 112% | 120% | 109% | 106% | 106% | 105% | 106% | 99.4% | 106% | 117% | 116% | 120% | 117% | 121% | 120% | 130% | 108% | 114% | 119% | 97% | 96.2% | 115% | 101% | 109% | 108% | 120% | 111% | 100% | 106% | 103%
4 | O=C([O-])[C@H](CC(=O)N1C[C@H]2CCCC[C@H]2C1)Cc1ccccc1 | 107% | 118% | 120% | 129% | 123% | 125% | 125% | 119% | 131% | 130% | 134% | 114% | 129% | 122% | 129% | 134% | 131% | 131% | 131% | 137% | 139% | 142% | 113% | 122% | 126% | 134% | 123% | 127% | 129% | 122% | 135% | 131% | 129%
5 | CN(c1nccc(=O)[nH]1)C1CCN(c2nc3ccccc3n2Cc2ccc(F)cc2)CC1 | 108% | 104% | 109% | 110% | 111% | 119% | 118% | 118% | 114% | 112% | 110% | 113% | 110% | 101% | 114% | 124% | 111% | 116% | 109% | 115% | 115% | 123% | 100% | 108% | 109% | 108% | 125% | 113% | 121% | 112% | 123% | 119% | 112%
6 | C/C(=C\c1csc(C)n1)[C@@H]1C[C@@H]2O[C@@H]2CCC[C@H](C)[C@H](O)[C@@H](C)C(=O)C(C)(C)[C@@H](O)CC(=O)O1 | 37.2% | 25.2% | 25% | 26.8% | 27.1% | 24.6% | 23.9% | 25.2% | 21.1% | 21.5% | 22.6% | 28.8% | 14.8% | 19.1% | 20.3% | 20% | 20.6% | 21.6% | 20.8% | 17.4% | 18.1% | 19.3% | 67.2% | 27.9% | 33.6% | 27.2% | 34.7% | 33.1% | 33.7% | 31.4% | 29.1% | 31.3% | 35.9%
7 | C[N+](C)(C)CC(=O)O.[Cl-] | 86.5% | 92% | 93% | 92.6% | 93.7% | 87% | 98.2% | 89.8% | 99.3% | 88.2% | 99.1% | 86.4% | 94.4% | 90.9% | 94.7% | 91.8% | 91.5% | 98% | 91.5% | 94.1% | 98% | 93.7% | 81.8% | 87.4% | 85.4% | 86% | 91.1% | 82.4% | 90.7% | 88.1% | 82.9% | 90.4% | 81.7%
